Like-named read-outs stand apart in the source and are kept apart here.
Key:
caspase 9 in MCF7 cells = assay: Caspase 9 activity, fluorimetric; type: cell-based, human; conditions: MCF7, 2 h, 50 µM
Method: Activation of caspase 3, caspase 7 and caspase 9 was measured using the Caspase 3/7 Fluorescence Assay kit (Cayman Chemical, Ann Arbor, MI; #10,009,135) and the Caspase 9 fluorimetric assay kit (Enzo Life Science, Roma, Italy; #ALX-850-224). The results were expressed as nmoles of the hydrolyzed substrate of each caspase/mg cellular proteins, according to a previously set titration curve.

sigma-2 receptors = sigma-2 receptors (Homo sapiens, UniProt Q5BJF2); conditions: read-out: Sigma-2 Affinity Ki; cited from earlier work
Chain of sigma-2 receptors (Q5BJF2 whole entry): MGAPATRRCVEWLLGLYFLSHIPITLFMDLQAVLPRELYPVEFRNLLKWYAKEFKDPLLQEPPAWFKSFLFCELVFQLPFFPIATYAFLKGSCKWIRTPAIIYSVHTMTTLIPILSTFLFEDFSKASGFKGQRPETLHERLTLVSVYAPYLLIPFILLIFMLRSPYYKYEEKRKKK

[1] = test system: GRP78, ATF6, IRE1, PERK in MCF7 cells; assay: ER stress markers, qRT-PCR and immunoblotting; type: cell-based, human; conditions: MCF7, 2 h, 50 µM
Method: 1 μg total RNA was reverse-transcribed using the iScript Reverse Transcription Supermix kit (Bio-Rad Laboratories, Hercules, CA; #1,708,840), according to the manufacturer’s instruction. 25 ng cDNA were amplified with 10 μL IQ™ SYBR Green Supermix (Bio-Rad Laboratories, # 1708880B05). Primers were designed with the qPrimer Depot software (http://primerdepot.nci.nih.gov/). qRT-PCR was carried out with a CFX96™ Real-Time Detector System (Bio-Rad Laboratories). Cycling conditions were: 30 s at 95 °C, followed by 40 cycles of denaturation (15 s at 95 °C), annealing/extension (30 s at 60 °C). The same cDNA preparation was used to quantify the genes of interest and the housekeeping gene S14, used to normalize gene expression. The relative quantitation of each sample was carried out using the Gene Expression Quantitation software (Bio-Rad Laboratories). Results were expressed in arbitrary units. For each gene, the expression in untreated cells was assumed to be “1”.
Cells were rinsed with ice-cold lysis buffer (50 mM, Tris, 10 mM EDTA, 1% v/v Triton-X100), supplemented with the protease inhibitor cocktail set III (80 μM aprotinin, 5 mM bestatin, 1.5 mM leupeptin, 1 mM pepstatin; Sigma, # 535,140), 2 mM phenylmethylsulfonyl fluoride (Sigma: #P7626) and 1 mM Na3VO4, (Sigma; #S6508) then sonicated and centrifuged at 13,000 × g for 10 min at 4 °C. 20 μg protein extracts were subjected to SDS–PAGE and probed with the antibodies for: GRP78 (#ab21685), ATF6 (#ab122897), IRE-1 (#ab37073), PERK (#ab65142), actin (#ab1801) (all from Abcam, Cambridge, UK), followed by a peroxidase-conjugated secondary antibody (Bio-Rad Laboratories). The membranes were washed with Tris-buffered saline-Tween 0.1% v/v solution, and the proteins were detected by enhanced chemiluminescence (Bio-Rad Laboratories, #1,705,061). The densitometric analysis was performed using the ImageJ software (https://imagej.nih.gov/), calculating the ratio protein of interest/actin band density, putting actin band density as 1 relative unit in each condition. Densitometric analysis and whole blots are included as Supporting Information.

A549 cells [2] = assay: Mitochondrial depolarization, JC-1 staining; type: cell-based, human; conditions: A549, 2 h, 50 µM
Method: (§1) Staining with the JC-1 fluorescent probe (Biotium Inc., Freemont, CA; #30,001-30001-T) was performed as described in Riganti et al. 2015 [21]. Fluorescence units were used to calculate the percentage of green-fluorescent (i.e., depolarized) mitochondria vs red-fluorescent (i.e., polarized) mitochondria.

MCF7 cells [3] = assay: Mitochondrial depolarization, JC-1 staining; type: cell-based, human; conditions: MCF7, 2 h, 50 µM
Method: as §1

P-gp = target: T1, P-gp (Homo sapiens, UniProt P08183); conditions: cited from earlier work
T1 construct: expressed in transfected cells; host or cells: MDCK-MDR1
T1 sequence (P08183 whole entry): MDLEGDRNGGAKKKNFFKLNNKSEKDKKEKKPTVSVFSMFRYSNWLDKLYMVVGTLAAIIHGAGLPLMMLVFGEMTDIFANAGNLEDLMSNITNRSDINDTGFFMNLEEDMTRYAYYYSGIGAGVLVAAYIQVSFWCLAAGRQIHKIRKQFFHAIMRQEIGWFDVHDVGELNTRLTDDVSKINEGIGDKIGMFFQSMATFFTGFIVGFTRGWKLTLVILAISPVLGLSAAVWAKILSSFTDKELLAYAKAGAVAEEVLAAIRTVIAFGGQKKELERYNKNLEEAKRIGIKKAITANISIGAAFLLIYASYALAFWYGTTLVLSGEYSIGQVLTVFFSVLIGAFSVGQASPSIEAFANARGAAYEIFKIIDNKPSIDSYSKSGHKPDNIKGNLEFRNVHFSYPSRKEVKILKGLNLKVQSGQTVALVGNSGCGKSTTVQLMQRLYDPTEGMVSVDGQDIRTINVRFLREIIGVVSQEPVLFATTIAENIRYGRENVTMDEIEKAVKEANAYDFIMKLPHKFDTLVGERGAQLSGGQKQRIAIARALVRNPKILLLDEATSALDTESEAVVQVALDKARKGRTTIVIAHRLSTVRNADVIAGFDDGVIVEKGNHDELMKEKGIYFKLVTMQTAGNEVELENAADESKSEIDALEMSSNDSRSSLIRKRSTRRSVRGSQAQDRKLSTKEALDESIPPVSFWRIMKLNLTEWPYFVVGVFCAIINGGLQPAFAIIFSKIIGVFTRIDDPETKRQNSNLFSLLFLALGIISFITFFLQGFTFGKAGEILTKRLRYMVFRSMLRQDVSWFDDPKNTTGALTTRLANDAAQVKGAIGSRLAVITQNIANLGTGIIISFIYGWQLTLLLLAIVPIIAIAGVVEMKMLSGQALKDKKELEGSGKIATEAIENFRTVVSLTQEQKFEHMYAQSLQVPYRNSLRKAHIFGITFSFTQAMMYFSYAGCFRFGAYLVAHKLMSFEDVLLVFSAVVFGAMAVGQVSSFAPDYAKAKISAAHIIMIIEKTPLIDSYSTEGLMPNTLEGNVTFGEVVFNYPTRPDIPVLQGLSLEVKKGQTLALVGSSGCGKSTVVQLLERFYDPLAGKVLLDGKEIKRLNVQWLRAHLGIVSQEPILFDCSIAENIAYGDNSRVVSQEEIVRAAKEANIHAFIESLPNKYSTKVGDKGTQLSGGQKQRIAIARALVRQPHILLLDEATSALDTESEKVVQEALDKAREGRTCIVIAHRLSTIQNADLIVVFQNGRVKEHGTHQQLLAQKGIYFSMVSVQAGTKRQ

MCF7 and A549 cells = assay: Whole cell ROS, DCFDA-AM probe; type: cell-based, human; conditions: MCF7 and A549, 2 h, 50 µM
Method: (§2) Intramitochondrial reactive oxygen species (ROS) were measured using the MitoSOX fluorescent probe (Invitrogen ThermoScientific, # M36008), according to the manufacturer’s instructions. For total ROS, cells were incubated with 5 µmol/L of 5-(and-6)-chlorometyl-20,70-dichlorodihydro-fluorescein diacetate-acetoxymethyl ester (DCFDA-AM, Sigma, #21,884), as described by Riganti et al. 2015 [21]. The results are expressed as nmoles/mg mitochondrial or cellular proteins, respectively.

A549 [4] = assay: Cell viability, MTT assay at 48 h; type: cell-based; conditions: Homo sapiens, A549, 48 h, read-out: EC50 ± SEM, tumor cells A549
Method: (§3) Human MCF7 breast adenocarcinoma (#HTB-22) and human A549 carcinoma (#CCL-85) cell lines, non-tumor human breast (MCF10A, #CRL-10317) and lung (BEAS-2B, #CRL-9482) cells were obtained from American Type Culture Collection (ATCC, Bethesda, MD). MCF7 cells were cultured in DMEM medium (Gibco Thermo Scientific, Waltham, MA; #10,565,018), A549 in HAM’s F12 medium (Gibco Thermo Scientific; #11,765,054), and BEAS-2B in RPMI-1640 medium (Gibco Thermo Scientific; # 61,870,010), all supplemented with 10% v/v fetal bovine serum (FBS; Sigma, St. Louis, MO; #F4135) and 1% v/v penicillin–streptomycin (Sigma; #P4458). MCF10A cells were cultured in DMEM/F12 medium (Gibco Thermo Scientific; #31,331,028) supplemented with 5% v/v horse serum (Sigma; #H1270) and 1% v/v penicillin–streptomycin, 20 ng/mL epidermal growth factor (Sigma, #E4127), 10 µg/mL insulin (Sigma, #I3536), […] hydrocortisone (Sigma, #H0888), 100 ng/mL cholera toxin (Sigma, #C8052). Cells were kept in a humidified incubator at 37 °C with 5% CO2.
(§4) Cell growth was determined using the MTT assay at 48 h. On day 1, 25,000 cells/well were seeded into 96-well plates in a volume of 100 μL. On day 2, the various drug concentrations (1 μM–100 μM) were added. In all experiments, the various drug solvents (EtOH, Sigma, # E7148; DMSO, Sigma, # D8418) were added to each control to evaluate possible cytotoxicity of the solvent. After the established incubation time with drugs (48 h), MTT (0.5 mg/mL, Sigma # M2003) was added to each well, and after 3–4 h incubation at 37 °C, the supernatant was removed. Formazan crystals were solubilized using 100 μl of DMSO/EtOH (1:1) and absorbance values at 570 and 630 nm were determined on the microplate reader Victor 3 from PerkinElmer Life Sciences (Waltham, MA).

BEAS-2B = assay: Cell viability, MTT assay at 48 h; type: cell-based; conditions: Homo sapiens, read-out: EC50 ± SEM, normal cells BEAS-2B
Method: as §3, §4

MCF10A = assay: Cell viability, MTT assay at 48 h; type: cell-based; conditions: Homo sapiens, MCF-10A, read-out: EC50 ± SEM, normal cells MCF10A
Method: as §3, §4

MCF7 [5] = assay: Cell viability, MTT assay at 48 h; type: cell-based; conditions: Homo sapiens, MCF7, 48 h, read-out: EC50 ± SEM, tumor cells MCF7
Method: as §3, §4

MCF7 [6] = test system: MCF7; design: method as in doi:10.1039/C5RA19857G; conditions: MTT; read-out: EC50, tumor cells MCF7; cited from earlier work
A549 cells [7] = assay: Mitochondrial ROS, MitoSOX staining; type: cell-based, human; conditions: A549, 2 h, 50 µM
Method: as §2

MCF7 cells [8] = assay: Mitochondrial ROS, MitoSOX staining; type: cell-based, human; conditions: MCF7, 2 h, 50 µM
Method: as §2

A549 [9] = test system: A549; design: method as in doi:10.1039/C5RA19857G; conditions: MTT; read-out: EC50, tumor cells A549; cited from earlier work

For `CN(C)C(=S)N/N=C1\C(=O)Nc2ccccc21` [ACThio1, (Z)-N,N-dimethyl-2-(2-oxoindolin-3-ylidene)hydrazinecarbothioamide], the “Rank order of caspase 9 activation” value (caspase 9 in MCF7 cells) is given as “FA4 > MLP44 > PS3 > ACThio1”, the Ki (sigma-2 receptors) is given as greater than 10 µM and the “Expression of ER stress markers GRP78, ATF6, IRE1, PERK” value (“Expression of ER stress markers GRP78” for short) [1] is given as “no or negligible effect”. For the same molecule, the “Mitochondrial depolarization (JC-1 staining)” value (from here on “Mitochondrial depolarization”) (A549 cells [2]) was “did not produce any detectable changes in mitochondrial polarization”, the “Mitochondrial depolarization” value (MCF7 cells [3]) was “did not produce any detectable changes in mitochondrial polarization” and the “P-gp Activity EC50” value (P-gp) was “Not Active^d”. For the same molecule, the “ROS levels in whole cells (DCFDA-AM)” value (MCF7 and A549 cells) was “not significantly increased”, the EC50 (A549 [4]) was 4.08 ± 0.4 µM and the EC50 (BEAS-2B) was 3.39 ± 0.8 µM. The EC50 (MCF10A) was 2.09 ± 0.4 µM and the EC50 (MCF7 [5]) was 5.88 ± 1.1 µM.

For `COc1cc2c(cc1OC)CN(CCCCN1C(=O)/C(=N\NC(=S)N(C)C)c3ccccc31)CC2` [MLP44, (Z)-2-(1-(4-(6,7-Dimethoxy-3,4-dihydroisoquinolin-2(1H)-yl)butyl)-2-oxoindolin-3-ylidene)-N,N-dimethylhydrazinecarbothioamide], the “Rank order of caspase 9 activation” value (caspase 9 in MCF7 cells) is listed as “FA4 > MLP44 > PS3 > ACThio1”, the Ki (sigma-2 receptors) is listed as 0.0341 µM and the “Expression of ER stress markers GRP78” value [1] is listed as “modest effects”. The EC50 (MCF7 [6]) was 24.6 µM, the “Mitochondrial depolarization” value (A549 cells [2]) was “totally insensitive” and the “Mitochondrial depolarization” value (MCF7 cells [3]) was “strong depolarization”. For the same molecule, the EC50 (P-gp) was 3.04 µM, the “ROS levels in whole cells (DCFDA-AM)” value (MCF7 and A549 cells) was “variable” and the “Mitochondrial ROS (MitoSOX)” value (A549 cells [7]) was “increased”. The “Mitochondrial ROS (MitoSOX)” value (MCF7 cells [8]) was “increased”, the EC50 (BEAS-2B) was 11.9 ± 2.1 µM and the EC50 (MCF10A) was 24.2 ± 0.8 µM. The EC50 (A549 [9]) was 10.4 µM.

For `CN(C)C(=S)N/N=C1\C(=O)N(CCCCN2CCN(C3CCCCC3)CC2)c2ccccc21` [PS3, (Z)-2-[1-[4-(4-cyclohexylpiperazin-1-yl)butyl]-2-oxoindolin-3-ylidene]-N,N-dimethylhydrazinecarbothioamide], the “Rank order of caspase 9 activation” value (caspase 9 in MCF7 cells) is given as “FA4 > MLP44 > PS3 > ACThio1”, the Ki (sigma-2 receptors) is given as 0.0354 µM and the “Expression of ER stress markers GRP78” value [1] is given as “modest effects”. For the same molecule, the EC50 (MCF7 [6]) was 1.81 µM, the “Mitochondrial depolarization” value (A549 cells [2]) was “did not produce any detectable changes in mitochondrial polarization” and the “Mitochondrial depolarization” value (MCF7 cells [3]) was “did not produce any detectable changes in mitochondrial polarization”. The EC50 (P-gp) was 2.83 µM, the “ROS levels in whole cells (DCFDA-AM)” value (MCF7 and A549 cells) was “not significantly increased” and the EC50 (BEAS-2B) was 6.22 ± 1.3 µM. The EC50 (MCF10A) was 3.03 ± 0.6 µM and the EC50 (A549 [9]) was 2.2 µM.

From paper PMC10661773, “Cytotoxic pathways activated by multifunctional thiosemicarbazones targeting sigma-2 receptors in breast and lung carcinoma cells” (Pharmacological Reports, 2023)
